Test results as given in patent US20060069132A1, “Azolecarboxamide herbicides” (priority 2004, published 2006).

Legend:
Surinam grass = experiment: Test C pre-/postemergence herbicide test; format: in vivo, Urochloa decumbens; conditions: for Surinam Grass plant response rating: 500 g ai/ha
Source text: (§1) Seeds of plant species selected from bermudagrass (Cynodon dactylon (L.) Pers.), Surinam grass (Urochloa decumbens (Staph) R. D. Webster, previously named Brachiaria decumbens Stapf), cocklebur (Xanthium strumarium L.), corn (Zea mays L.), large crabgrass (Digitaria sanguinalis (L.) Scop.), woolly cupgrass (Eriochloa villosa (Thunb.) Kunth), giant foxtail (Setaria faberi Herrm.), goosegrass (Eleusine indica (L.) Gaertn.), johnsongrass (Sorghum halepense (L.) Pers.), kochia (Kochia scoparia (L.) Schrad.), lambsquarters (Chenopodium album L.), morningglory (Ipomoea coccinea L.), eastern black nightshade (Solanum ptycanthum Dunal), yellow nutsedge (Cyperus esculentus L.), pigweed (Amaranthus retroflexus L.), common ragweed (Ambrosia elatior L.), soybean (Glycine max (L.) Merr.), common (oilseed) sunflower (Helianthus annuus L.) and velvetleaf (Abutilon theophrasti Medik.) were planted and treated preemergence with test chemicals formulated in a non-phytotoxic solvent mixture which included a surfactant.
(§2) At the same time, plants selected from these crop and weed species and also winter barley (Hordeum vulgare L.), blackgrass (Alopecurus myosuroides Huds.), canarygrass (Phalaris minor Retz.), chickweed (Stellaria media (L.) Vill.), downy bromegrass (Bromus tectorum L.), green foxtail (Setaria viridis (L.) Beauv.), Italian ryegrass (Lolium multiflorum Lam.), wheat (Triticum aestivum L.), wild oat (Avenafatua L.) and windgrass (Apera spica-venti (L.) Beauv.) were treated with postemergence applications of some of the test chemicals formulated in the same manner. Plants ranged in height from 2 to 18 cm (1- to 4-leaf stage) for postemergence treatments. Plant species in the flooded paddy test consisted of rice (Oryza sativa), smallflower umbrella sedge (Cyperus difformis L.), ducksalad (Heteranthera limosa (Sw.) Willd.) and barnyardgrass (Echinochloa crus-galli (L.) Beauv.) grown to the 2-leaf stage for testing. Treated plants and controls were maintained in a greenhouse for 12 to 14 days, after which time all species were compared to controls and visually evaluated. Plant response ratings, summarized in Table C, are based on a scale of 0 to 100 where 0 is no effect and 100 is complete control. A dash (-) response means no test result.

velvetleaf = experiment: Test A pre-/postemergence herbicide test; format: in vivo, Abutilon theophrasti
Method in brief: (§3)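 Visual injury scores on a 0–100 scale (100 = complete control) taken about ten days post-treatment in greenhouse against untreated controls; dash means no result. Treatments: preemergence soil spray and postemergence spray to runoff on one- to two-leaf plants 2 to 10 cm tall, surfactant-containing formulation.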

kochia = experiment: Test C pre-/postemergence herbicide test; format: in vivo, Kochia scoparia; conditions: for Kochia plant response rating: 500 g ai/ha
Source text: as §1, §2

large crabgrass [1] = experiment: Test A pre-/postemergence herbicide test; format: in vivo, Digitaria sanguinalis
Method in brief: as §3

corn = experiment: Test C pre-/postemergence herbicide test; format: in vivo, Zea mays; conditions: for Corn plant response rating: 500 g ai/ha
Source text: as §1, §2

large crabgrass [2] = experiment: Test C pre-/postemergence herbicide test; format: in vivo, Digitaria sanguinalis; conditions: for Crabgrass, Large plant response rating: 500 g ai/ha
Source text: as §1, §2

barnyardgrass = experiment: Test A pre-/postemergence herbicide test; format: in vivo, Echinochloa crus-galli
Method in brief: as §3

goosegrass = experiment: Test C pre-/postemergence herbicide test; format: in vivo, Eleusine indica; conditions: for Goosegrass plant response rating: 500 g ai/ha
Source text: as §1, §2

giant foxtail = experiment: Test C pre-/postemergence herbicide test; format: in vivo, Setaria faberi; conditions: for Foxtail, Giant plant response rating: 500 g ai/ha
Source text: as §1, §2

bermudagrass = experiment: Test C pre-/postemergence herbicide test; format: in vivo, Cynodon dactylon
Source text: as §1, §2

cocklebur = experiment: Test C pre-/postemergence herbicide test; format: in vivo, Xanthium strumarium; conditions: for Cocklebur plant response rating: 500 g ai/ha
Source text: as §1, §2

[3] = Postemergence, 250 g ai/ha, scale 0 to 100, 0 no effect, 100 complete control
[4] = postemergence, 125 g ai/ha, scale 0 to 100
[5] = postemergence, 62 g ai/ha, scale 0 to 100
[6] = Postemergence, 500 g ai/ha, 0 to 100 scale, 0 no effect, 100 complete control
[7] = Postemergence, 2000 g ai/ha, 0 to 100 scale, 0 no effect, 100 complete control
[8] = Preemergence, 500 g ai/ha, visual rating, 0 to 100 scale (0 no effect, 100 complete control)
[9] = Preemergence, 2000 g ai/ha, visual rating, 0 to 100 scale (0 no effect, 100 complete control)
[10] = Preemergence, 2000 g ai/ha, 0 to 100 scale, 0 no effect, 100 complete control
[11] = postemergence, 31 g ai/ha, scale 0 to 100

CC(=NO)c1cccc(NC(=O)c2cc(C(C)(C)C)nn2CC(F)(F)F)c1 [Compound 112]
45: Crabgrass, Large plant response rating (large crabgrass [1]; [8]) | Plant response rating, Barnyardgrass (barnyardgrass; [7])
30: Plant response rating, Crabgrass, Large (large crabgrass [1]; [7]) | Corn plant response rating (corn; Postemergence, scale 0 to 100) | Crabgrass, Large plant response rating (large crabgrass [2]; Postemergence, scale 0 to 100) | Plant response rating, Crabgrass, Large (large crabgrass [2]; [3]) | Goosegrass plant response rating (goosegrass; Postemergence, scale 0 to 100) | Plant response rating, Goosegrass (goosegrass; [3]) | Plant response rating, Foxtail, Giant (giant foxtail; [5]) | Bermudagrass plant response rating (bermudagrass; Postemergence, 500 g ai/ha, scale 0 to 100) | Plant response rating, Bermudagrass (bermudagrass; [3]) | Plant response rating, Cocklebur (cocklebur; [4])
80: Kochia plant response rating (kochia; Postemergence, scale 0 to 100)
60: Surinam Grass plant response rating (Surinam grass; Postemergence, scale 0 to 100) | Plant response rating, Cocklebur (cocklebur; [3])
10: Plant response rating, Corn (corn; [5]) | Plant response rating, Crabgrass, Large (large crabgrass [2]; [4])
55: Crabgrass, Large plant response rating (large crabgrass [1]; [9])
0: Plant response rating, Kochia (kochia; [5]) | Plant response rating, Crabgrass, Large (large crabgrass [2]; [5]) | Plant response rating, Bermudagrass (bermudagrass; [4]) | Plant response rating, Bermudagrass (bermudagrass; [5]) | Plant response rating, Cocklebur (cocklebur; [5])
20: Plant response rating, Surinam Grass (Surinam grass; [5]) | Plant response rating, Kochia (kochia; [4]) | Plant response rating, Corn (corn; [4]) | Plant response rating, Goosegrass (goosegrass; [4]) | Plant response rating, Goosegrass (goosegrass; [5])
35: Plant response rating, Velvetleaf (velvetleaf; [7]) | Barnyardgrass plant response rating (barnyardgrass; [6])
70: Cocklebur plant response rating (cocklebur; Postemergence, scale 0 to 100)
50: Velvetleaf plant response rating (velvetleaf; [9]) | Barnyardgrass plant response rating (barnyardgrass; [9]) | Foxtail, Giant plant response rating (giant foxtail; Postemergence, scale 0 to 100) | Plant response rating, Foxtail, Giant (giant foxtail; [3]) | Plant response rating, Foxtail, Giant (giant foxtail; [4])
25: Velvetleaf plant response rating (velvetleaf; [6]) | Velvetleaf plant response rating (velvetleaf; [8]) | Crabgrass, Large plant response rating (large crabgrass [1]; [6]) | Barnyardgrass plant response rating (barnyardgrass; [8])
40: Plant response rating, Surinam Grass (Surinam grass; [3]) | Plant response rating, Surinam Grass (Surinam grass; [4])

C#CCOC(=O)c1cccc(NC(=O)c2cc(C(C)(C)C)nn2CC)c1 [Compound 84]
0: Plant response rating, Surinam Grass (Surinam grass; [3]) | Plant response rating, Surinam Grass (Surinam grass; [4]) | Plant response rating, Surinam Grass (Surinam grass; [5]) | Velvetleaf plant response rating (velvetleaf; [8]) | Velvetleaf plant response rating (velvetleaf; [9]) | Plant response rating, Kochia (kochia; [4]) | Plant response rating, Kochia (kochia; [5]) | Crabgrass, Large plant response rating (large crabgrass [1]; [8]) | Crabgrass, Large plant response rating (large crabgrass [1]; [10]) | Corn plant response rating (corn; Postemergence, scale 0 to 100) | Plant response rating, Corn (corn; [3]) | Plant response rating, Corn (corn; [4]) | Plant response rating, Corn (corn; [5]) | Plant response rating, Crabgrass, Large (large crabgrass [2]; [3]) | Plant response rating, Crabgrass, Large (large crabgrass [2]; [4]) | Plant response rating, Crabgrass, Large (large crabgrass [2]; [5]) | Barnyardgrass plant response rating (barnyardgrass; [8]) | Barnyardgrass plant response rating (barnyardgrass; [10]) | Plant response rating, Goosegrass (goosegrass; [4]) | Plant response rating, Goosegrass (goosegrass; [5]) | Foxtail, Giant plant response rating (giant foxtail; Postemergence, scale 0 to 100) | Plant response rating, Foxtail, Giant (giant foxtail; [3]) | Plant response rating, Foxtail, Giant (giant foxtail; [4]) | Plant response rating, Foxtail, Giant (giant foxtail; [5]) | Plant response rating, Bermudagrass (bermudagrass; [3]) | Cocklebur plant response rating (cocklebur; Postemergence, scale 0 to 100) | Plant response rating, Cocklebur (cocklebur; [3]) | Plant response rating, Cocklebur (cocklebur; [4]) | Plant response rating, Cocklebur (cocklebur; [5])
10: Surinam Grass plant response rating (Surinam grass; Postemergence, scale 0 to 100) | Plant response rating, Kochia (kochia; [3]) | Plant response rating, Barnyardgrass (barnyardgrass; [7]) | Goosegrass plant response rating (goosegrass; Postemergence, scale 0 to 100)
15: Barnyardgrass plant response rating (barnyardgrass; [6])
5: Plant response rating, Goosegrass (goosegrass; [3])
20: Velvetleaf plant response rating (velvetleaf; [6]) | Plant response rating, Velvetleaf (velvetleaf; [7]) | Crabgrass, Large plant response rating (large crabgrass [1]; [6]) | Plant response rating, Crabgrass, Large (large crabgrass [1]; [7])
50: Crabgrass, Large plant response rating (large crabgrass [2]; Postemergence, scale 0 to 100)
80: Kochia plant response rating (kochia; Postemergence, scale 0 to 100)

CCn1nc(C(C)(C)C)cc1C(=O)Nc1cccc(C(=O)OC)c1 [Compound 81]
10: Plant response rating, Crabgrass, Large (large crabgrass [2]; [4]) | Plant response rating, Goosegrass (goosegrass; [3]) | Plant response rating, Foxtail, Giant (giant foxtail; [4]) | Plant response rating, Foxtail, Giant (giant foxtail; [5])
40: Plant response rating, Corn (corn; [3]) | Plant response rating, Corn (corn; [4]) | Plant response rating, Corn (corn; [5])
20: Plant response rating, Kochia (kochia; [4]) | Plant response rating, Foxtail, Giant (giant foxtail; [3]) | Bermudagrass plant response rating (bermudagrass; Postemergence, 250 g ai/ha, scale 0 to 100)
70: Plant response rating, Kochia (kochia; [3])
55: Plant response rating, Cocklebur (cocklebur; [4]) | Plant response rating, Cocklebur (cocklebur; [5])
80: Plant response rating, Surinam Grass (Surinam grass; [3])
5: Plant response rating, Crabgrass, Large (large crabgrass [2]; [5]) | Plant response rating, Goosegrass (goosegrass; [4])
60: Plant response rating, Cocklebur (cocklebur; [3])
30: Plant response rating, Crabgrass, Large (large crabgrass [2]; [3])
0: Plant response rating, Kochia (kochia; [5]) | Plant response rating, Goosegrass (goosegrass; [5]) | Plant response rating, Bermudagrass (bermudagrass; [4]) | Plant response rating, Bermudagrass (bermudagrass; [11]) | Plant response rating, Bermudagrass (bermudagrass; [5])
50: Plant response rating, Surinam Grass (Surinam grass; [4]) | Plant response rating, Surinam Grass (Surinam grass; [5]) | Plant response rating, Cocklebur (cocklebur; [11])
